According to patent publication US7858125B2, “Multi-component biocide composition for wood protection” (priority 2006, dated 2010):
Like-named read-outs stand apart in the source and are kept apart here.

What was measured:
A. niger = experiment: Mold resistance of treated wood stakes (ASTM D4445-91), A. niger; assay type: cell-based, Aspergillus niger 2.242
Method: (§1) The biocide compositions were first tested for the efficacy in preventing mold fungal growth. […] The mold fungi were first prepared by growing the various mold fungi species on 2% malt agar. […] Spore suspensions were transferred to a spray bottle and diluted to 100 milliliters with DI water. The spray bottle was adjusted to deliver 1 milliliter inoculum/spray.
(§2) The biocide compositions were tested for the efficacy in preventing mold fungal growth and compared to the abilities of the commercially used preservatives, fungicides, extracts, and pharmaceuticals in preventing mold fungal growth.
(§3) Specimens (7×20 millimeters cross section by 7 centimeters long) were cut from unseasoned southern yellow pine mill ends from a Mississippi sawmill and stored at 0° C. […] Southern yellow pine oriented strand board (OSB) specimens (11×20 millimeters cross section by 7 centimeters long) were cut from a full sheet of OSB and conditioned to 70% relative humidity. […] Untreated stakes were dipped in DI water and served as Control A for water-based test chemicals. […]
(§4) The biocide compositions were first tested for the efficacy in preventing mold fungal growth. […]

T. viride = experiment: Mold resistance of treated wood stakes (ASTM D4445-91), T. viride; assay type: cell-based, Trichoderma viride ATCC 20476
Method: as §1, §2, §3, §4

P. chrysogenum = experiment: Mold resistance of treated wood stakes (ASTM D4445-91), P. chrysogenum; assay type: cell-based, Penicillium chrysogenum PH02
Method: as §1, §2, §3, §4

[1] = Example 2, dip-treated unseasoned southern yellow pine, 4 weeks, scale 0-5 (5 = 100% coverage)

| Compound | Mold Resistance Average Rating, A. niger (A. niger; [1]) | Mold Resistance Average Rating, T. viride (T. viride; [1]) | Mold Resistance Average Rating, P. chrysogenum (P. chrysogenum; [1]) | Mold Resistance Average Rating, A. niger (A. niger) | Mold Resistance Average Rating, T. viride (T. viride) | Mold Resistance Average Rating, P. chrysogenum (P. chrysogenum) |
| --- | --- | --- | --- | --- | --- | --- |
| O=C([O-])c1ccccc1.[Na+] [Sample 13, Sodium benzoate] | 2.9 | 3.1 | 2.4 | – | – | – |
| O=C([O-])c1ccccc1.[Na+] [Sample 14, Sodium benzoate] | 1.7 | 1.0 | 0.0 | – | – | – |
| O=C([O-])c1ccccc1.[Na+] [Sample 15, Sodium benzoate] | 0.4 | 0.4 | 0.0 | – | – | – |
| O=C([O-])c1ccccc1.[Na+] [Sample 16, Sodium benzoate] | 0.0 | 0.7 | 0.0 | – | – | – |
| CCC(=O)[O-].CCC(=O)[O-].[Ca+2] [Sample 17, Calcium propionate] | 5.0 | 4.6 | 4.9 | – | – | – |
| CCC(=O)[O-].CCC(=O)[O-].[Ca+2] [Sample 18, Calcium propionate] | 5.0 | 4.7 | 5.0 | – | – | – |
| CCC(=O)[O-].CCC(=O)[O-].[Ca+2] [Sample 19, Calcium propionate] | 0.9 | 3.3 | 2.0 | – | – | – |
| C/C=C/C=C/C(=O)[O-].[K+] [Sample 20, Potassium sorbate] | – | – | – | 5.0 | 4.9 | 5.0 |
| C/C=C/C=C/C(=O)[O-].[K+] [Sample 21, Potassium sorbate] | – | – | – | 2.6 | 2.9 | 2.6 |
| C/C=C/C=C/C(=O)[O-].[K+] [Sample 22, Potassium sorbate] | – | – | – | 0.0 | 0.7 | 0.0 |
| C/C=C/C=C/C(=O)[O-].[K+] [Sample 23, Potassium sorbate] | – | – | – | 0.0 | 1.0 | 0.0 |
| C/C=C/C=C/C(=O)[O-].[K+] [Sample 24, Potassium sorbate] | – | – | – | 0.0 | 0.0 | 1.7 |
| O=C[O-].[Na+] [Sample 25, Sodium formate] | 5.0 | 4.3 | 4.6 | – | – | – |
| O=C[O-].[Na+] [Sample 26, Sodium formate] | 5.0 | 4.1 | 4.7 | – | – | – |
| O=C[O-].[Na+] [Sample 27, Sodium formate] | 4.7 | 4.0 | 3.3 | – | – | – |
| O=NO [Sample 28, Sodium nitrite] | 5.0 | 5.0 | 4.9 | – | – | – |
| CC(C)c1cccc(O)c(=O)c1 [Sample 30, Thujaplicin (isopropyltropolone)] | 0.0 | 0.0 | 0.0 | – | – | – |
| Clc1ccc(COC(Cn2ccnc2)c2ccc(Cl)cc2Cl)c(Cl)c1 (stereo not drawn) [Sample 34, Miconazole] | 0.0 | 0.0 | 0.0 | – | – | – |
| OC(Cn1cncn1)(Cn1cncn1)c1ccc(F)cc1F [Sample 39, Difluconazole] | 5.0 | 5.0 | 4.7 | – | – | – |
| Clc1ccccc1C(c1ccccc1)(c1ccccc1)n1ccnc1 [Sample 40, Clotrimazole] | 5.0 | 3.7 | 3.4 | – | – | – |
| C[C@@H](c1ncncc1F)[C@](O)(Cn1cncn1)c1ccc(F)cc1F [Sample 41, Voriconazole] | 0.0 | 2.4 | 0.0 | – | – | – |
| C[C@@H](c1ncncc1F)[C@](O)(Cn1cncn1)c1ccc(F)cc1F [Sample 42, Voriconazole] | 0.0 | 1.3 | 0.0 | – | – | – |
| C[C@@H](c1ncncc1F)[C@](O)(Cn1cncn1)c1ccc(F)cc1F [Sample 43, Voriconazole] | 0.1 | 0.4 | 0.0 | – | – | – |
| C[C@@H](c1ncncc1F)[C@](O)(Cn1cncn1)c1ccc(F)cc1F [Sample 44, Voriconazole] | 0.0 | 0.1 | 0.0 | – | – | – |
| c1ccc2[nH]c(-c3cscn3)nc2c1 [Sample 45, Thiabendazole] | 0.0 | 2.5 | 0.0 | – | – | – |
| c1ccc2[nH]c(-c3cscn3)nc2c1 [Sample 46, Thiabendazole] | 0.0 | 0.0 | 0.0 | – | – | – |
| c1ccc2[nH]c(-c3cscn3)nc2c1 [Sample 47, Thiabendazole] | 0.0 | 0.0 | 0.0 | – | – | – |
| Thujaplicin (isopropyltropolone) [Sample 29] | 5.0 | 1.0 | 0.0 | – | – | – |
